# Measurements published in patent US7439232B2, “Heteroaryl 5-thio-β-D-glucopyranoside derivatives and therapeutic agents for diabetes containing the same” (Taisho Pharmaceutical Co., Ltd., priority 2003, dated 2008).
row,SMILES,melting point
1,"COc1ccc(Cc2c(O[C@@H]3S[C@H](CO)[C@@H](O)[C@H](O)[C@H]3O)n[nH]c2C)cc1F [Compound 4, 4′-[(3′-fluoro-4′-methoxyphenyl)methyl]-5′-methyl-1′H-pyrazol-3′-yl 5-thio-β-D-glucopyranoside]",145 to 147 °C
2,"CCOC(=O)OC[C@H]1S[C@@H](Oc2nn(C(=O)OCC)c(C)c2Cc2ccc(OC)cc2)[C@H](O)[C@@H](O)[C@@H]1O [Compound 8, 1′-ethoxycarbonyl-4′-[(4′-methoxyphenyl)methyl]-5′-methyl-pyrazol-3′-yl 6-O-ethoxycarbonyl-5-thio-β-D-glucopyranoside]",106 to 110 °C
3,"CCc1ccc(Cc2ccncc2O[C@@H]2S[C@H](CO)[C@@H](O)[C@H](O)[C@H]2O)cc1 [Compound 20, 4′-(4′-ethylbenzyl)pyridin-3′-yl 5-thio-β-D-glucopyranoside]",184 to 187 °C
4,"CCc1ccc(Cc2nccnc2O[C@@H]2S[C@H](CO)[C@@H](O)[C@H](O)[C@H]2O)cc1 [Compound 23, 3′-(4′-ethylbenzyl)-1′H-pyrazin-2′-yl 5-thio-β-D-glucopyranoside]",181 to 183.5 °C
5,"OCCc1ccc(Cc2ccncc2O[C@@H]2S[C@H](CO)[C@@H](O)[C@H](O)[C@H]2O)cc1 [Compound 32, 4′-[4′-(2′-hydroxyethyl)benzyl]pyridin-3′-yl 5-thio-β-D-glucopyranoside]",194.5 to 195 °C

# The next lines start with the values.
row,melting point,SMILES
1,54 to 58.5 °C,"CCc1ccc(Cc2c(O[C@@H]3S[C@H](CO)[C@@H](O)[C@H](O)[C@H]3O)nn(C(C)C)c2C)cc1 [Compound 1, 4′-(4′-ethylbenzyl)-1′-isopropyl-5′-methyl-1′H-pyrazol-3′-yl 5-thio-β-D-glucopyranoside]"
2,143 to 147.5 °C,"CCc1ccc(Cc2c(C)nc(C)nc2O[C@@H]2S[C@H](CO)[C@@H](O)[C@H](O)[C@H]2O)cc1 [Compound 24, 5′-(ethylbenzyl)-2′,6′-dimethyl-3′H-pyrimidin-4′-yl 5-thio-β-D-glucopyranoside]"
